Data as given in ChEMBL document CHEMBL1141059, “3-(2-Aminoethyl)pyridine analogs as alpha4beta2 nicotinic cholinergic receptor ligands” (Bioorg Med Chem Lett, 2005).

What follows are molecules tested against Neuronal acetylcholine receptor; alpha4/beta2 (Rattus norvegicus, UniProt P09483+P12390) (assay: Binding affinity for rat brain Nicotinic acetylcholine receptor alpha4-beta2 using [3H]S-(-)-nicotine).
Chain of Neuronal acetylcholine receptor; alpha4/beta2 (P09483 whole entry): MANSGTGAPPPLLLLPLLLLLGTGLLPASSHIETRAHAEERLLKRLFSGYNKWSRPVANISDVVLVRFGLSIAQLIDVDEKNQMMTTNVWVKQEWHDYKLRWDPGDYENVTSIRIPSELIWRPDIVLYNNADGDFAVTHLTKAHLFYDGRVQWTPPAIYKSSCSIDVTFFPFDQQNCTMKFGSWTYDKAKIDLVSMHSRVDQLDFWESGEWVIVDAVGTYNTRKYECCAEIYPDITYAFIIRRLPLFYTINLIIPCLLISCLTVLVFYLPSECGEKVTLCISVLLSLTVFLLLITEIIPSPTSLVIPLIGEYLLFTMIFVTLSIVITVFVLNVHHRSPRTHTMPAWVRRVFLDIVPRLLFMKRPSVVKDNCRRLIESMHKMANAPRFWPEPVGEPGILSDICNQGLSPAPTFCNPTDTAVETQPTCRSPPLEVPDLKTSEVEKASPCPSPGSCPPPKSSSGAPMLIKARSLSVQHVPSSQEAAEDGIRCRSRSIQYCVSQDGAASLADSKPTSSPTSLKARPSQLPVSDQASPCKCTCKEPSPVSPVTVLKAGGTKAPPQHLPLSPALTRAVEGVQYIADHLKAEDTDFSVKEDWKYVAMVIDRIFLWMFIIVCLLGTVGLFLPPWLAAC
Chain of Neuronal acetylcholine receptor; alpha4/beta2 (P12390 whole entry): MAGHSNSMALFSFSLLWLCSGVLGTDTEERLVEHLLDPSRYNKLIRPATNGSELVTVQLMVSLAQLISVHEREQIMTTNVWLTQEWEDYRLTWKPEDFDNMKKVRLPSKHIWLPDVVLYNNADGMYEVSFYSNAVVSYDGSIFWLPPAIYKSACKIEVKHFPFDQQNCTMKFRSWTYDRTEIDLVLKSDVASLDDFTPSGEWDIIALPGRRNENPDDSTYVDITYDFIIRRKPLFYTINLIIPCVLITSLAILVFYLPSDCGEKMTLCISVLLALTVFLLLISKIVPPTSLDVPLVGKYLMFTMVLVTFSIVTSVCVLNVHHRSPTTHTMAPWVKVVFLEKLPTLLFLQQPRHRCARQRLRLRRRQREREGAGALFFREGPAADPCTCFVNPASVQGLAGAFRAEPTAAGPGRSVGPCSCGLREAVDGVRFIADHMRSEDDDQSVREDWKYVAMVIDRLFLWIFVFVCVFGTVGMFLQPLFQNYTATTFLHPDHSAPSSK
Molecule `CCN(C)CCc1ccc(CCc2ccc(OC)cc2)nc1` has a Ki greater than 10 µM. `CCN(C)CCc1cncc(OC)c1` was tested, and the Ki was 0.019 µM. With `CCN(C)CCc1cnccc1N` the Ki was greater than 10 µM. For `CCN(C)CCc1cncc(Br)c1`, the Ki was 0.36 µM. For `CCN(C)CCc1ccc(Br)nc1`, the Ki was 0.083 µM. `CCN(C)CCc1cncc(Cl)c1` gave a Ki of 0.31 µM. In the case of `CCN(C)CCc1ccc(C)nc1`, the Ki is reported as 0.24 µM. Molecule `CCN(C)CCc1ccc(Cl)nc1` has a Ki of 0.07 µM. With `CCN(C)CCc1cnccc1OC` the Ki was 1.84 µM. In the case of `CCN(C)CCc1ccc(CCc2ccc(Cl)cc2)nc1`, the Ki is reported as greater than 10 µM. Molecule `CCN(C)CCc1cncc(C)c1` has a Ki of 0.37 µM.
